Measurements from patent publication US9440980B2, “Remedy for diabetes” (EA Pharma Co., Ltd., priority 2007, dated 2016).

How the values were obtained:
[1] = biological target: T1, Gβ1γ2-Myc (Homo sapiens, UniProt P62873); assay: Gβ binding ability using Gβ-expressing insect cell extract solution (PD10 method); details: binding strength Compound 1>Compound 3>Compound 6, FIG. 8
T1 construct: made in house; host or cells: Sf21 insect cells (baculovirus), unpurified Triton X-100 extract
Procedure: The PD10 method was carried out as follows. To a microtube were added 250 μl of an RBA buffer, 100 μl of an RBA buffer containing 0 or 500 μM of the unlabeled Compound 1, 100 μl of the above extract solution, and 50 μl of an RBA buffer containing 2.5 μM of the ^3H-labeled Compound 1 successively, and the resultant mixture was stirred and left at room temperature for 1 hour. The entire reaction solution (0.5 ml) was added to a PD10 column sufficiently substituted with the RBA buffer, 2 ml of the RBA buffer was passed through the PD10 column, and thereafter further eluate by 1.5 ml of the RBA buffer was collected as a high-molecular fraction containing the protein, 15 ml of a liquid scintillator was added thereto, and the amount of the ^3H-labeled Compound 1 contained in the high-molecular fraction was measured by a scintillation counter. The count of the sample added with the unlabeled Compound 1 at the final concentration of 100 μM was considered to correspond to the nonspecific binding, the difference between the nonspecific binding count and the count of the sample not added with the unlabeled Compound 1 was considered to correspond to the specific binding, and thus the amount of the binding protein contained in the extract solution was evaluated.
Using the frozen insect cell Sf21 expressing the Gβ1, Myc-Gγ2, and Gαi1-His prepared in Example 19 (8), 10^7 cells were melted and suspended in 1.3 ml of an RBA buffer containing 1% Triton X-100 (75 mM Tris-HCl, 12.5 mM MgCl2, 2 mM EDTA, pH 7.4). […]
The inhibitory activity against the binding of the ^3H-labeled Compound 1 to the Gβ1γ2-Myc was considered to correspond to the activity of the compounds for binding to the Gβ1γ2-Myc. Thus, the activity of each of Compounds 1, 3, and 6 for binding to the Gβ1γ2-Myc was measured using the above extract solution. The activity of the ^3H-labeled Compound 1 for binding to the protein contained in the extract solution was measured by the PD10 method described in Example 15 (1). […]

[2] = tested on: isolated adipocytes; assay: Measurement of glucose uptake activity in isolated rat adipocytes (2-[14C]-deoxy-D-glucose); type: cell-based; details: Adipocyte, glucose uptake of insulin (100 nM) = 100%
Procedure: A male Wistar rat was decapitated and exsanguinated, and then a paratesticular adipose tissue was resected therefrom after laparotomy. The tissue was cut in a KRH (Krebs-Ringer HEPES: 130 mM NaCl, 4.7 mM KCl, 1.2 mM KH2PO4, 1.2 mM MgSO4, 1 mM CaCl2, 25 mM HEPES) containing a BSA (bovine serum albumin), a collagenase (type I) was added thereto, and the resultant was subjected to a digestive treatment for about 40 minutes to obtain isolated adipocytes. The buffer was replaced to remove the collagenase, and a 2% BSA/KRH solution was added thereto, whereby the adipocytes were floated again to obtain a adipocytes suspension.
The glucose uptake activity of a test substance compound was evaluated in accordance with Non-Patent Document 14: Simpson et al., Annual Review of Biochemistry, 55, 1059, (1986). Thus, 200 μl of the adipocytes suspension was dispensed into each polystyrene test tube, 100 μl of a solution containing the test substance compound was added thereto, and the test tube was shaken and incubated at 37° C. for 30 minutes. The glucose uptake activity was evaluated by measuring the amount of 2-[^14C(U)]-deoxy-D-glucose uptaken per unit time. Thus, the 2-[^14C(U)]-deoxy-D-glucose was added to the preincubated adipocytes suspension at the final concentration of 0.5 μCi/sample, and after 5 minutes, cytochalasin B was added thereto at the final concentration of 10 μM to stop the glucose uptake. Dinonyl phthalate was superposed over the solution, the resultant was centrifuged to separate the fat cells from the buffer, and the amount of the 2-[^14C(U)]-deoxy-D-glucose contained in the fat cell layer was measured by a liquid scintillation counter, whereby the uptaken glucose amount was determined. The glucose uptake of insulin (100 nM) was evaluated in the same manner and considered to be 100%, and thus the EC50 value of each compound was obtained.

[3] = tested on: HLF cell membrane; assay: Binding assay of 3H-labeled Compound 1 using HLF cell membrane; design: species or system human; details: FIG. 4
Procedure: A cell membrane of a human liver-derived HLF cell was prepared as follows. HLF cells were approximately confluently cultured in a Dulbecco MEM medium containing 10% FCS in a cell culture dish having a diameter of 15 cm. The HLF cells cultured in 30 dishes were scraped by a cell scraper in the presence of an HMEE buffer (20 mM HEPES-KOH, 1 mM EDTA, 1 mM EGTA, and 2 mM MgCl2) to obtain about 30 ml of a cell suspension. The suspension was homogenized using a TEFLON (registered trademark) homogenizer (ice temperature, 1000 rpm, 15 stroke) and centrifuged at a low rate (1500 rpm, 5 minutes). […]
The binding assay of the ^3H-labeled Compound 1 on thus obtained cell membrane was carried out as follows. […] The filter plate was well washed with a TBS (20 mM Tris-HCl, 0.15 M NaCl, pH 7.4) containing 0.05% Twee-20 and sufficiently dried, 30 μl of a liquid scintillator (Microscinti 0, Packard) was added to the filter plate, and the ^3H count was measured by Topcount (Packard). […]
The inhibitory activity of each of the probe molecule compounds synthesized in Examples 2 and 7 to 10 against the binding of the ^3H-labeled Compound 1 to the HLF cell membrane was measured by the method described in Example 14 to confirm whether the probe compound could be bound to the binding protein like Compound 1. […]

[4] = tested on: Compound 6-induced Akt phosphorylation in differentiated 3T3L1 cell; assay: Inhibition of Compound 6-induced Akt phosphorylation in differentiated 3T3L1 adipocytes; type: cell-based; details: 15 minutes pretreatment, FIG. 12
Procedure: The inhibitory activity of the inhibitor TGX-115 specific to the phosphoinositide 3-kinase (PI3-kinase) β and δ against Compound 6-induced Akt phosphorylation was measured by using a differentiated 3T3L1 cell converted to a adipocyte as follows. […] The differentiated 3T3L1 cells were seeded in a Dulbecco MEM medium containing 10% FCS in a 96-well plate (Collagen type I coated plate, IWAKI, Product No. 4860-010) at a ratio of 4×10^4 cells/well, cultured at 37° C. for about 16 hours in the presence of 5% CO2 to achieve sufficient attachment, and the medium was removed by suction. […] Then, 10 μl of a 0.1% BSA/Dulbecco MEM medium containing 3 mM of Compound 6 was added thereto, and a treatment was carried out at 37° C. for 10 minutes in the presence of 5% CO2.

T1 sequence (P62873 whole entry): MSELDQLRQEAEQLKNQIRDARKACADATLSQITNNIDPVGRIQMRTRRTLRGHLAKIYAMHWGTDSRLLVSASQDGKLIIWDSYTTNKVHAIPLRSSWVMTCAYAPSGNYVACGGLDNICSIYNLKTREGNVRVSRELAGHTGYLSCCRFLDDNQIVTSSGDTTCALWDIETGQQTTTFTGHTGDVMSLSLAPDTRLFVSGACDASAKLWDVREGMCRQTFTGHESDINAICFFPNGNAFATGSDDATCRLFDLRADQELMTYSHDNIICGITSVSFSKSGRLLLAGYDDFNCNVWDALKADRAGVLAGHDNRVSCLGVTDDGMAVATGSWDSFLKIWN
T1 sequence (P59768 with tags, fused parts or gaps partner limits assumed): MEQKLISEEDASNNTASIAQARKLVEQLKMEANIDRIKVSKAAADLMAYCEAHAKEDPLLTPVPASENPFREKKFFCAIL

Structure (SMILES) | EC50 [2] | also measured
O=C1NCC2=C1[C@@H](c1csc3ccccc13)N(C(=O)CCc1ccccn1)[C@@H]1CCCC[C@H]1N2 [Compound 4] | 6 nM | –
NCCOCCOc1ccccc1[C@@H]1C2=C(CNC2=O)N[C@@H]2CCCC[C@H]2N1C(=O)CCc1ccccn1 [Compound 7] | – | inhibitory activity against the binding of the 3H-labeled Compound 1 to the HLF cell membrane [3]: equal to Compound 2
Cc1ccccc1Oc1cccc2c(=O)cc(N3CCOCC3)[nH]c12 [TGX-115] | – | inhibition of Akt phosphorylation by Compound 6 [4]: clearly inhibited

Second part, led by results:

EC50 [2] | Structure (SMILES) | also measured
14 nM | COc1ccccc1[C@@H]1C2=C(CNC2=O)N[C@@H]2CCCC[C@H]2N1C(=O)CCc1nccs1 [Compound 3] | binding to Gβ1γ2-Myc (inhibition of 3H-labeled Compound 1 binding) [1]: could be bound to the Gβγ2-Myc
1000 nM | O=C1NCC2=C1[C@@H](c1cccc3ccoc13)N(C(=O)C1CC1)[C@@H]1CCCC[C@H]1N2 [Compound 5] | –
